In Sander's compilation of Henry's law constants (doi:10.1021/je0000266):

Assay: Henry solubility constant Hcp at 298.15 K (mol/(m3 Pa))
Settings: reference: Bamford et al. (2000)

SMILES | Henry solubility constant Hcp
Clc1cc(Cl)c(-c2c(Cl)c(Cl)cc(Cl)c2Cl)c(Cl)c1Cl [2,2',3,3',4,5',6,6'-octachlorobiphenyl] | 0.01
Clc1cc(Cl)c(-c2c(Cl)c(Cl)cc(Cl)c2Cl)cc1Cl [2,2',3,4',5,5',6-heptachlorobiphenyl] | 0.016
Clc1cc(Cl)c(-c2c(Cl)c(Cl)cc(Cl)c2Cl)c(Cl)c1 [2,2',3,4',5,6,6'-heptachlorobiphenyl] | 0.0088
Clc1cc(Cl)c(-c2ccc(Cl)c(Cl)c2Cl)cc1Cl [2,2',3,4,4',5'-hexachlorobiphenyl] | 0.022
Clc1ccc(Cl)c(-c2cccc(Cl)c2Cl)c1 [2,2',3,5'-tetrachlorobiphenyl] | 0.036
Clc1cc(Cl)c(-c2cc(Cl)c(Cl)cc2Cl)cc1Cl [2,2',4,4',5,5'-hexachlorobiphenyl] | 0.019
Clc1cc(Cl)c(-c2cc(Cl)c(Cl)cc2Cl)c(Cl)c1 [2,2',4,4',5,6'-hexachlorobiphenyl] | 0.013
Clc1ccc(Cl)c(-c2cc(Cl)c(Cl)cc2Cl)c1 [2,2',4,5,5'-pentachlorobiphenyl] | 0.024
Clc1cc(Cl)c(-c2ccccc2Cl)c(Cl)c1 [2,2',4,6-tetrachlorobiphenyl] | 0.016
Clc1ccc(Cl)c(-c2cc(Cl)ccc2Cl)c1 [2,2',5,5'-tetrachlorobiphenyl] | 0.032
Clc1ccc(Cl)c(-c2ccccc2Cl)c1 [2,2',5-trichlorobiphenyl] | 0.039
Clc1ccc(-c2cc(Cl)c(Cl)cc2Cl)cc1Cl [2,3',4,4',5-pentachlorobiphenyl] | 0.028
Clc1ccc(-c2ccc(Cl)c(Cl)c2)c(Cl)c1 [2,3',4,4'-tetrachlorobiphenyl] | 0.027
Clc1ccc(-c2ccc(Cl)c(Cl)c2Cl)cc1Cl [2,3,3',4,4'-pentachlorobiphenyl] | 0.03
Clc1ccc(-c2ccccc2Cl)cc1 [2,4'-dichlorobiphenyl] | 0.04
Clc1ccccc1-c1ccccc1 [2-chlorobiphenyl] | 0.049
Clc1ccc(-c2cc(Cl)c(Cl)c(Cl)c2)cc1Cl [3,3',4,4',5-pentachlorobiphenyl] | 0.048
Clc1ccc(-c2ccc(Cl)c(Cl)c2)cc1Cl [3,3',4,4'-tetrachlorobiphenyl] | 0.062
